Read-outs that look alike come from different tables or passages of the source.
Assays:
[1] = molecular target: T1, human adenosine A2A receptor (Homo sapiens, UniProt P29274); assay: [3H]-SCH-58261 binding assay, human adenosine A2A receptor (CHO cell membranes, SPA)
T1 construct: expressed in transfected cells; host or cells: CHO cells, semliki forest virus expression system; washed membrane pellet used
Method: Human Adenosine A2A Receptor
The human adenosine A2A receptor was recombinantly expressed in chinese hamster ovary (CHO) cells using the semliki forest virus expression system. Cells were harvested, washed twice by centrifugation, homogenised and again washed by centrifugation. The final washed membrane pellet was suspended in a Tris (50 mM) buffer containing 120 mM NaCl, 5 mM KCl, 2 mM CaCl2 and 10 mM MgCl2 (pH 7.4) (buffer A). The [^3H]-SCH-58261 (Dionisotti et al., 1997, Br J Pharmacol 121, 353; 1 nM) binding assay was carried out in 96-well plates in the presence of 2.5 μg of membrane protein, 0.5 mg of Ysi-poly-1-lysine SPA beads and 0.1 U adenosine deaminase in a final volume of 200 μl of buffer A. Non-specific binding was defined using xanthine amine congener (XAC; 2 μM). Compounds were tested at 10 concentrations from 10 μM–0.3 nM. All assays were conducted in duplicate and repeated at least two times. Assay plates were incubated for 1 hour at room temperature before centrifugation and then bound ligand determined using a Packard Topcount scintillation counter. IC50 values, the concentration where 50% of the […] binding is displaced, were calculated using a non-linear curve fitting program and Ki values calculated using the Cheng-Prussoff equation.

[2] = displacement of [3H]-SCH-58261 (1 nM), recombinant receptor in CHO membranes, Ki by Cheng-Prussoff equation, read-out: hA2 (pKi) (converted)

T1 sequence (P29274 whole entry): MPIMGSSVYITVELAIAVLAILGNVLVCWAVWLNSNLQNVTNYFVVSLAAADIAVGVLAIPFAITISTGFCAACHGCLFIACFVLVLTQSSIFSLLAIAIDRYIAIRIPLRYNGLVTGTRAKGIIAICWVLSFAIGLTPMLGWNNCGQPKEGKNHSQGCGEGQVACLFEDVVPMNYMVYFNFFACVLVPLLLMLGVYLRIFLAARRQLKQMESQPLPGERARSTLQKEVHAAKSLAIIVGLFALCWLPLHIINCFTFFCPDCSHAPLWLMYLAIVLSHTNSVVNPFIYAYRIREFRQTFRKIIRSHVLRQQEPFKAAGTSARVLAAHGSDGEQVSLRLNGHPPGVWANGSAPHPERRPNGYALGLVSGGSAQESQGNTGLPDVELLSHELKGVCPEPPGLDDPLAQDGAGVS

Row | Compound | Ki [1, 2] [nM] | melting point [°C] | further results
1 | COc1ccc(N2CCOCC2)c2sc(NC(=O)NC3CCOCC3)nc12 [Example 2, 1-(4-Methoxy-7-morpholin-4-yl-benzothiazol-2-yl)-3-(tetrahydro-pyran-4-yl)-urea] | 12.6 | – | –
2 | COc1ccc(N2CCOCC2)c2sc(NC(=O)N(C)C3CCOCC3)nc12 [Example 34, 3-(4-Methoxy-7-morpholin-4-yl-benzothiazol-2-yl)-1-methyl-1-(tetrahydro-pyran-4-yl)-urea] | 15.8 | 240 to 242 | –
3 | COc1ccc(N2CCOCC2)c2sc(NC(=O)N3[C@@H]4CC[C@H]3C[C@@H](O)C4)nc12 [Example 3, 3-endo-Hydroxy-8-aza-bicyclo[3.2.1]octane-8-carboxylic acid (4-methoxy-7-morpholin-4-yl-benzothiazol-2-yl)-amide] | – | – | Ki [1]: 7.94 nM
4 | COc1ccc(N2CCOCC2)c2sc(NC(=O)N3CC4CCC3CO4)nc12 (stereo not shown) [Example 30, 2-Oxa-5-aza-bicyclo[2.2.2]octane-5-carboxylic acid (4-methoxy-7-morpholin-4-yl-benzothiazol-2-yl)-amide] | 5.01 | 164 to 170 | –
5 | COc1ccc(N2CCOCC2)c2sc(NC(=O)N(C)C3CCC(F)(F)CC3)nc12 [Example 24, 1-(4,4-Difluoro-cyclohexyl)-3-(4-methoxy-7-morpholin-4-yl-benzothiazol-2-yl)-1-methyl-urea] | 10 | 189 to 192 | –
6 | COc1ccc(N2CCOCC2)c2sc(NC(=O)N3CC4CC[C@@](C)(C3)C4(C)C)nc12 [Example 26, (1R)-1,8,8-Trimethyl-3-aza-bicyclo[3.2.1]octane-3-carboxylic acid (4-methoxy-7-morpholin-4-yl-benzothiazol-2-yl)-amide] | – | 185 to 189 | –
7 | COc1ccc(N2CCOCC2)c2sc(NC(=O)N3CCC(CNS(C)(=O)=O)CC3)nc12 [Example 16, 4-(Methanesulfonylamino-methyl)-piperidine-1-carboxylic acid (4-methoxy-7-morpholin-4-yl-benzothiazol-2-yl)-amide] | 15.8 | – | –
8 | COc1ccc(N2CCOCC2)c2sc(NC(=O)N(C)[C@H]3CC[C@@H](O)CC3)nc12 [Example 29, (cis)-1-(4-Hydroxy-cyclohexyl)-3-(4-methoxy-7-morpholin-4-yl-benzothiazol-2-yl)-1-methyl-urea] | 12.6 | 169 to 171 | –
9 | COc1ccc(N2CCOCC2)c2sc(NC(=O)N(C)[C@H]3CC[C@H](O)CC3)nc12 [Example 27, (trans)-1-(4-Hydroxy-cyclohexyl)-3-(4-methoxy-7-morpholin-4-yl-benzothiazol-2-yl)-1-methyl-urea] | 12.6 | 158 to 162 | –
10 | COc1ccc(N2CCCCC2)c2sc(NC(=O)N3CCC4(CCCO4)CC3)nc12 [Example 19, 1-Oxa-8-aza-spiro[4.5]decane-8-carboxylic acid (4-methoxy-7-piperidin-1yl-benzothiazol-2-yl)-amide] | 3.98 | – | –
11 | COc1ccc(N2CCOCC2)c2sc(NC(=O)N(C)C3CCCCC3)nc12 [Example 9, 1-Cyclohexyl-3-(4-methoxy-7-morpholin-4-yl-benzothiazol-2-yl)-1-methyl-urea] | 12.6 | – | –
12 | COc1ccc(N2CCOCC2)c2sc(NC(=O)N(C)[C@H]3CC[C@@H](OC)CC3)nc12 [Example 25, (cis)-1-(4-Methoxy-cyclohexyl)-3-(4-methoxy-7-morpholin-4-yl-benzothiazol-2-yl)-1-methyl-urea] | 20 | 198 to 200 | –
13 | COc1ccc(N2CCOCC2)c2sc(NC(=O)N3CCC(CO)(Cc4ccccc4)CC3)nc12 [Example 8, 4-Benzyl-4-hydroxymethyl-piperidine-1-carboxylic acid (4-methoxy-7-morpholin-4-yl-benzothiazol-2-yl)-amide] | 3.98 | – | –
14 | COc1ccc(N2CCOCC2)c2sc(NC(=O)N(C)[C@H]3CC[C@H](OC)CC3)nc12 [Example 32, (trans)-1-(4-Methoxy-cyclohexyl)-3-(4-methoxy-7-morpholin-4-yl-benzothiazol-2-yl)-1-methyl-urea] | 25.1 | 211 to 213 | –
15 | COc1ccc(N2CCOCC2)c2sc(NC(=O)N3CC4CCC3CC4)nc12 [Example 12, 2-Aza-bicyclo[2.2.2]octane-2-carboxylic acid (4-methoxy-7-morpholin-4-yl-benzothiazol-2-yl)-amide] | 2.51 | – | –
16 | COc1ccc(N2CCOCC2)c2sc(NC(=O)N3CCC4(CCCCC4)CC3)nc12 [Example 10, 3-Aza-spiro[5.5]undecane-3-carboxylic acid (4-methoxy-7-morpholin-4-yl-benzothiazol-2-yl)-amide] | 10 | – | –

Row | Compound | Ki [1, 2] [nM] | melting point [°C] | further results
17 | COc1ccc(N2CCOCC2)c2sc(NC(=O)N3CCC4(CCN(C)C4=O)CC3)nc12 [Example 4, 2-Methyl-1-oxo-2,8-diaza-spiro[4.5]decane-8-carboxylic acid (4-methoxy-7-morpholin-4-yl-benzothiazol-2-yl)-amide] | 6.31 | – | –
18 | COc1ccc(N2CCOCC2)c2sc(NC(=O)N(C)[C@H]3CC[C@@H](F)CC3)nc12 [Example 23, 1-(4cis-Fluoro-cyclohexyl)-3-(4-methoxy-7-morpholin-4-yl-benzothiazol-2-yl)-1-methyl-urea] | 7.94 | 201 to 204 | –
19 | COc1ccc(N2CCOCC2)c2sc(NC(=O)N3CCC([C@H](C)O)CC3)nc12 [Example 15, (S)-4-(1-Hydroxy-ethyl)-piperidine-1-carboxylic acid (4-methoxy-7-morpholin-4-yl-benzothiazol-2-yl)-amide] | 7.94 | – | –
20 | COc1ccc(N2CCOCC2)c2sc(NC(=O)N3CCC([C@@H](C)O)CC3)nc12 [Example 14, (R)-4-(1-Hydroxy-ethyl)-piperidine-1-carboxylic acid (4-methoxy-7-morpholin-4-yl-benzothiazol-2-yl)-amide] | 7.94 | – | –
21 | COc1ccc(N2CCOCC2)c2sc(NC(=O)N3CCC4(CCNC4=O)CC3)nc12 [Example 5, 1-Oxo-2,8-diaza-spiro[4.5]decane-8-carboxylic acid (4-methoxy-7-morpholin-4-yl-benzothiazol-2-yl)-amide] | 6.31 | – | –
22 | COc1ccc(N2CCOCC2)c2sc(NC(=O)N3CCC4(CCCO4)CC3)nc12 [Example 13, 1-Oxa-8-aza-spiro[4.5]decane-8-carboxylic acid (4-methoxy-7-morpholin-4-yl-benzothiazol-2-yl)-amide] | 2.51 | – | –
23 | O=C(Nc1nc2c(Cl)ccc(N3CCCCC3)c2s1)N1CCC(Cc2ccccc2)CC1 [Example 22, 4-Benzyl-piperidine-1-carboxylic acid (4-chloro-7-piperidin-1-yl-benzothiazol-2-yl)-amide] | 15.8 | – | –
24 | COc1ccc(N2CCOCC2)c2sc(NC(=O)N(C)C3CCCCCC3)nc12 [Example 35, 1-Cycloheptyl-3-(4-methoxy-7-morpholin-4-yl-benzothiazol-2-yl)-1-methyl-urea] | 12.6 | 198 to 200 | –
25 | COc1ccc(N2CCOCC2)c2sc(NC(=O)N3C[C@@H]4CC[C@H]3C4)nc12 [Example 33, (1S,4R)-2-Aza-bicyclo[2.2.1]heptane-2-carboxylic acid (4-methoxy-7-morpholin-4-yl-benzothiazol-2-yl)-amide] | 5.01 | 149 | –
26 | O=C(Nc1nc2c(Cl)ccc(N3CCCCC3)c2s1)NC1CCCCC1 [Example 21, 1-(4-Chloro-7-piperidin-1-yl-benzothiazol-2-yl)-3-cyclohexyl-urea] | 2.51 | – | –
27 | COc1ccc(N2CCOCC2)c2sc(NC(=O)N3C[C@@H]4C[C@H]3CO4)nc12 [Example 1, (1S,4S)-2-Oxa-5-aza-bicyclo[2.2.1]heptane-5-carboxylic acid (4-methoxy-7-morpholin-4-yl-benzothiazol-2-yl)-amide] | 3.16 | – | –
28 | COc1ccc(N2CCOCC2)c2sc(NC(=O)N3CCCOCC3)nc12 [Example 28, Oxazepane-4-carboxylic acid (4-methoxy-7-morpholin-4-yl-benzothiazol-2-yl)-amide] | – | – | hA2 (pKi) ([1]; displacement of [3H]-SCH-58261 (1 nM), recombinant receptor in CHO membranes, Ki by Cheng-Prussoff equation): 7.9
29 | COc1ccc(N2CCOCC2)c2sc(NC(=O)N3CCN(c4ccccc4)CC3)nc12 [Example 7, 4-Phenyl-piperazine-1-carboxylic acid (4-methoxy-7-morpholin-4-yl-benzothiazol-2-yl)-amide] | 7.94 | – | –
30 | Cc1ccc(CC2(O)CCN(C(=O)Nc3nc4c(Cl)ccc(N5CCCCC5)c4s3)CC2)cc1 [Example 20, 4-Hydroxy-4-(4-methyl-benzyl)-piperidine-1-carboxylic acid (4-chloro-7-piperidin-1-yl-benzothiazol-2-yl)-amide] | 3.16 | – | –
31 | COc1ccc(N2CCOCC2)c2sc(NC(=O)N(C)C3CCCC3)nc12 [Example 36, 1-Cyclopentyl-3-(4-methoxy-7-morpholin-4-yl-benzothiazol-2-yl)-1-methyl-urea] | 7.94 | 110 to 125 | –
32 | COc1ccc(N2CCOCC2)c2sc(NC(=O)N3CCC4(CCCC4)CC3)nc12 [Example 11, 8-Aza-spiro[4.5]decane-8-carboxylic acid (4-methoxy-7-morpholin-4-yl-benzothiazol-2-yl)-amide] | 6.31 | – | –
